In PubChem BioAssay (NCI):
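How tested: cells in 96-well plates exposed to compound for 48 hours at five concentrations. The concentration for full growth arrest is given as TGI.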

Experiments:
Assay in all cases: inhibition of tumour cell growth, NCI panel, 48 h
[1] = tested on: SW-620 colon
[2] = tested on: RXF 393 renal
[3] = tested on: 786-0 renal
[4] = tested on: SK-MEL-2 melanoma
[5] = tested on: RPMI-8226 leukemia
[6] = tested on: HOP-92 NSCLC
[7] = tested on: COLO 205 colon
[8] = tested on: HOP-62 NSCLC
[9] = tested on: MALME-3M melanoma
[10] = tested on: UACC-62 melanoma
[11] = tested on: ACHN renal
[12] = tested on: M14 melanoma
[13] = tested on: HCT-116 colon
[14] = tested on: K-562 leukemia
[15] = tested on: MDA-MB-435
[16] = tested on: SK-MEL-5 melanoma
[17] = tested on: KM12 colon
[18] = tested on: LOX IMVI melanoma
[19] = tested on: OVCAR-8 ovarian
[20] = tested on: SF-268 CNS
[21] = tested on: A549 NSCLC
[22] = tested on: SF-539 CNS
[23] = tested on: NCI-H226 lung
[24] = tested on: OVCAR-5 ovarian
[25] = tested on: UACC-257 melanoma
[26] = tested on: IGROV1 ovarian
[27] = tested on: OVCAR-3 ovarian
[28] = tested on: EKVX NSCLC
[29] = tested on: TK-10 renal
[30] = tested on: NCI-H23 lung
[31] = tested on: BT-549 breast
[32] = tested on: NCI-H522 lung
[33] = tested on: UO-31 renal
[34] = tested on: HL-60(TB) leukemia
[35] = tested on: MDA-N
[36] = tested on: A498 renal
[37] = tested on: CAKI-1 renal
[38] = tested on: SR leukemia
[39] = tested on: NCI/ADR-RES ovarian
[40] = tested on: SNB-75 CNS
[41] = tested on: HT29 colon
[42] = tested on: SN12C renal
[43] = tested on: CCRF-CEM leukemia
[44] = tested on: SF-295 CNS
[45] = tested on: SNB-19 CNS
[46] = tested on: SK-OV-3 ovarian
[47] = tested on: MDA-MB-231 breast
[48] = tested on: T-47D breast
[49] = tested on: HCT-15 colon
[50] = tested on: HS 578T breast
[51] = tested on: DU-145 prostate
[52] = tested on: MCF7 breast
[53] = tested on: MOLT-4 leukemia

Measured: TGI

CCc1ccc(Nc2cc(=O)[nH]c(SCc3ccccc3)n2)cc1
> 100 µM: [1] | [2] | [3] | [4] | [5] | [6] | [7] | [8] | [9] | [10] | [11] | [12] | [13] | [14] | [15] | [16] | [17] | [18] | [19] | [20] | [21] | [22] | [23] | [24] | [25] | [26] | [27] | [28] | [29] | [30] | [31] | [32] | [33] | [34] | [35] | [36] | [37] | [38] | [39] | [40] | [41] | [42] | [43] | [44] | [45] | [46] | [47] | [48] | [49] | [50] | [51] | [52] | [53]
